{
  "source": "ChEMBL document CHEMBL5465560",
  "about": "“Selectivity Literature for EUbOPEN Chemogenomic Library” (2024)",
  "key": {"[1]": {"molecular_target": "T1, Histone-arginine methyltransferase CARM1 (Homo sapiens, UniProt Q86X55)", "T1 sequence (Q86X55 whole entry)": "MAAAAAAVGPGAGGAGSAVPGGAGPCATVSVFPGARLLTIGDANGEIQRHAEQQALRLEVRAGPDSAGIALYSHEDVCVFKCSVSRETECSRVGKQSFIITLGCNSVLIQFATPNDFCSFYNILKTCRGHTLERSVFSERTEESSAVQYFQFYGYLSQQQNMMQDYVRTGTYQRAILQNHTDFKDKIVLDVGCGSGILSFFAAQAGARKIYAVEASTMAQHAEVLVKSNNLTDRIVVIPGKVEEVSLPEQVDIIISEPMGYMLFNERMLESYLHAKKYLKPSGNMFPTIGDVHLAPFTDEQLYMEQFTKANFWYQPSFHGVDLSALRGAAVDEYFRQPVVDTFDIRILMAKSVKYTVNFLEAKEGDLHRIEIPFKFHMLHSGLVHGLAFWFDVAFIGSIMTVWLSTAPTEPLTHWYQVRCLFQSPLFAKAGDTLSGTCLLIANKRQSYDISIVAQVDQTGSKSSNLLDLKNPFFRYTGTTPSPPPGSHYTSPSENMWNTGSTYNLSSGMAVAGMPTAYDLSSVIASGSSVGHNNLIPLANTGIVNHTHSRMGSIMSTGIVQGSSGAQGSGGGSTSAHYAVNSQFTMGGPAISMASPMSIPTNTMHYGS", "experiment": "Selectivity interaction (Western Blot (dimethylation of BAF155 (BAF155me2a/BAF155) in U266B1 cells)) EUB0000255b CARM1", "type": "cell-based, U-266"}, "[2]": {"molecular_target": "T2, Tyrosine-protein kinase JAK3 (Homo sapiens) (UniProt P52333)", "T2 sequence (whole entry)": "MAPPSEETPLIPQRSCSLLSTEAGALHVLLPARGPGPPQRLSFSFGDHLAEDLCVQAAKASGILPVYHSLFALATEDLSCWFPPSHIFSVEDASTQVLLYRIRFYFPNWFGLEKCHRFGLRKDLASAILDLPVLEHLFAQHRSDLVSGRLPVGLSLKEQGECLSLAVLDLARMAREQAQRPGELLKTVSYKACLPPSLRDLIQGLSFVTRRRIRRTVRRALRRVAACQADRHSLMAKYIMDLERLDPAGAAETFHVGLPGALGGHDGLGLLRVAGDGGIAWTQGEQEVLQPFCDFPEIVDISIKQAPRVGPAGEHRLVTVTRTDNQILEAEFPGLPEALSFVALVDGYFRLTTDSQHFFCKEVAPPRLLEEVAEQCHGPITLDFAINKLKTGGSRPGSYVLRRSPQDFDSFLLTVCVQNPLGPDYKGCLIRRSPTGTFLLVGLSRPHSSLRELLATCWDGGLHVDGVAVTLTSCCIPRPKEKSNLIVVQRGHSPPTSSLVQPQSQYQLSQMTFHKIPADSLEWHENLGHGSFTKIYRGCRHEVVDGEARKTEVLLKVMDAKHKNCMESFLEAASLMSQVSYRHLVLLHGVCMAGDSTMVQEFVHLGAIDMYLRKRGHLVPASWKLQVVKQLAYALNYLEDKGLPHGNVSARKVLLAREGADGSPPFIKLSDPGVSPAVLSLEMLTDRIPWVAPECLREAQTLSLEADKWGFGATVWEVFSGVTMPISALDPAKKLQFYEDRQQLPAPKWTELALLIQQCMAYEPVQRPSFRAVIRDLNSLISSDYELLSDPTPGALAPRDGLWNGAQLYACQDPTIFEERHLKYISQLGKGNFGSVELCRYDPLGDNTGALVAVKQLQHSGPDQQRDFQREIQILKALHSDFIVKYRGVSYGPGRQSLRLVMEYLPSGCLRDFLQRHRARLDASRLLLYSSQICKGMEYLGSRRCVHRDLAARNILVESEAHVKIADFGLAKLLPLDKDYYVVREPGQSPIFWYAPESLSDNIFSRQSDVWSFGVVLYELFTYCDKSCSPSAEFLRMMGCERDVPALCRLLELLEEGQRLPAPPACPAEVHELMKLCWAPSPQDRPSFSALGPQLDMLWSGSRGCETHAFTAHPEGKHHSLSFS", "experiment": "Selectivity interaction (KinomeScan (DiscoverX)) EUB0001079a JAK3", "conditions": "at 1 µM"}, "[3]": {"molecular_target": "Protein kinase C beta type (Homo sapiens, UniProt P05771)", "sequence (P05771 2-671 limits assumed)": "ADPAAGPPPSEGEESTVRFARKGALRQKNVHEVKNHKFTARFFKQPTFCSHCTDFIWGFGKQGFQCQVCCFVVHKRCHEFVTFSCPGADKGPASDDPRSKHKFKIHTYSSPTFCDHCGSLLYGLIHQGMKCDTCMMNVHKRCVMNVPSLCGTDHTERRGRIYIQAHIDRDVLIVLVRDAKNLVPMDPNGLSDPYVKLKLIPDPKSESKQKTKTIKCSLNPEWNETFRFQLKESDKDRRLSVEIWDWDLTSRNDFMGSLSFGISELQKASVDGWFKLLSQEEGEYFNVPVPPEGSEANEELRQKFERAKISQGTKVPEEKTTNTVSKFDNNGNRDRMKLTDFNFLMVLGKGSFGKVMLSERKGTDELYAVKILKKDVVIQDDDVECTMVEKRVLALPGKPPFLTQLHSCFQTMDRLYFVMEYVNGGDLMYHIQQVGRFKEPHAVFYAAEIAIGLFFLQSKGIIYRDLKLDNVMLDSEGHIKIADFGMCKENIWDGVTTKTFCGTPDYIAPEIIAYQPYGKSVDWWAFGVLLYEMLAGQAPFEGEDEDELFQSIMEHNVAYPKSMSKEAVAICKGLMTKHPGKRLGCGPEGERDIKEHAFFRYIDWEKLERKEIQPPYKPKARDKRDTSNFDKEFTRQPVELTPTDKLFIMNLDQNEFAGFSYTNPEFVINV", "experiment": "Selectivity interaction (SelectScreen profiling (Invitrogen)) EUB0000607a PRKCB", "conditions": "at 2 µM"}, "[4]": {"molecular_target": "Ribosomal protein S6 kinase alpha-2 (Homo sapiens) (UniProt Q15349)", "sequence (Q15349 whole entry)": "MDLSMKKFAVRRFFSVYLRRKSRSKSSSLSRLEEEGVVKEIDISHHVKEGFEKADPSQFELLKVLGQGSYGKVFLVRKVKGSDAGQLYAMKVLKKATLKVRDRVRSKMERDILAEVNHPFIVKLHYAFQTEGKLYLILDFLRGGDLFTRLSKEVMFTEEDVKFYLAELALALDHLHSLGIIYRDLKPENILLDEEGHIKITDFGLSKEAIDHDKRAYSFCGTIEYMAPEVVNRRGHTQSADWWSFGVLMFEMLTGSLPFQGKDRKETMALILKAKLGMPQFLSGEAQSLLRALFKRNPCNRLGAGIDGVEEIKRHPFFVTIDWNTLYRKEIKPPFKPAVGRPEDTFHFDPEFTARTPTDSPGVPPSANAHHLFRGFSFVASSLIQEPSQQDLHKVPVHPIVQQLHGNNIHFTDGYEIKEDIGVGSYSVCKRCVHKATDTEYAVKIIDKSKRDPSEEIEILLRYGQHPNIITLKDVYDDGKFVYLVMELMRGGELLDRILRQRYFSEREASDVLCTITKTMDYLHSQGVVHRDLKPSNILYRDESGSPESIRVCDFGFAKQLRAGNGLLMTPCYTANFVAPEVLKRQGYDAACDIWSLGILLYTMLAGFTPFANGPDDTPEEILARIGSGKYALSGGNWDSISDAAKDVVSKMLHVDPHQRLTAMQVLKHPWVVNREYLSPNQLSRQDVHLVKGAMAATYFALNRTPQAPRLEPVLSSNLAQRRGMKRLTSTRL", "experiment": "Selectivity interaction (ActivX KiNativ screen (kinase selectivity in THP-1 cell lysates)) EUB0000639a RPS6KA2", "type": "subcellular", "conditions": "lysate, at 0.04 µM"}, "[5]": {"molecular_target": "Serine/threonine-protein kinase PRP4 homolog (Homo sapiens) (UniProt Q13523)", "sequence (Q13523 whole entry)": "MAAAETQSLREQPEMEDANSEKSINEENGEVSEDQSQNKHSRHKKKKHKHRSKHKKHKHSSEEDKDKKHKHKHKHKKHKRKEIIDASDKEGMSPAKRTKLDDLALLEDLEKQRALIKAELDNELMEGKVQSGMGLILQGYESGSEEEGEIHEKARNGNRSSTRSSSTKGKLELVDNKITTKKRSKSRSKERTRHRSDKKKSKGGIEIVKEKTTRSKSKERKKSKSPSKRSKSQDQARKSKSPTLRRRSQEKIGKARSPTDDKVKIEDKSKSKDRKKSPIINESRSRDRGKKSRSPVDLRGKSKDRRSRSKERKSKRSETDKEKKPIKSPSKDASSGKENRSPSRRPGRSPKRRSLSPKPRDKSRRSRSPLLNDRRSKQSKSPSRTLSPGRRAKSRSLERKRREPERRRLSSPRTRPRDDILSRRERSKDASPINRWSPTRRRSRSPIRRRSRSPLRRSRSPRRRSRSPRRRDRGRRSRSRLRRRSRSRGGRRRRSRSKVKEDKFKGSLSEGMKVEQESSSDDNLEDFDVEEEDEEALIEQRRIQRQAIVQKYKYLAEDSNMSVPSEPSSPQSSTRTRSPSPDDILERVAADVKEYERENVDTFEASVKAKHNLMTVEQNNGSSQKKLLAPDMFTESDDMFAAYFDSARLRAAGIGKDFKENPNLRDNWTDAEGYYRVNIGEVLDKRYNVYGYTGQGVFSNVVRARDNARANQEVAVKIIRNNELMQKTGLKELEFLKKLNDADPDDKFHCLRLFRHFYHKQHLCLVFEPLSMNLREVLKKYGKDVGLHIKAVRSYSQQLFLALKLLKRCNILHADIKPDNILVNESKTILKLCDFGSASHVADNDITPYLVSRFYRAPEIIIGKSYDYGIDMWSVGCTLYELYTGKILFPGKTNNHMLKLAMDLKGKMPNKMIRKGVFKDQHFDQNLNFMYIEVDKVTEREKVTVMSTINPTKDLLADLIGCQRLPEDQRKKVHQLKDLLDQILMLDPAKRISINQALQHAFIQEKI", "experiment": "Selectivity interaction (ActivX KiNativ screen (kinase selectivity in THP-1 cell lysates)) EUB0000639a PRPF4", "type": "subcellular", "conditions": "lysate, at 5 µM"}, "[6]": {"molecular_target": "T3, Dual specificity mitogen-activated protein kinase kinase 6 (Homo sapiens) (UniProt P52564)", "T3 sequence (whole entry)": "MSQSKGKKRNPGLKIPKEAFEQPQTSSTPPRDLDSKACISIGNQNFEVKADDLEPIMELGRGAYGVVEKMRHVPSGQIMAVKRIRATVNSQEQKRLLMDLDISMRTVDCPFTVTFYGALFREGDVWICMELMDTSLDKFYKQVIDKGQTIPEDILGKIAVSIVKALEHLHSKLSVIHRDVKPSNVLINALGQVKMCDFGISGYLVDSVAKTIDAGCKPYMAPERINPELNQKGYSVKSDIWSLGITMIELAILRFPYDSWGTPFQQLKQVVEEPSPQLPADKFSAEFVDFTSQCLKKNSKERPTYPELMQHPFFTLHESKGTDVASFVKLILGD", "experiment": "Selectivity interaction (ActivX KiNativ screen (kinase selectivity in THP-1 cell lysates)) EUB0000639a MAP2K6", "type": "subcellular", "conditions": "lysate, at 0.2 µM"}, "[7]": {"molecular_target": "Substance-P receptor (Homo sapiens) (UniProt P25103)", "sequence (P25103 whole entry)": "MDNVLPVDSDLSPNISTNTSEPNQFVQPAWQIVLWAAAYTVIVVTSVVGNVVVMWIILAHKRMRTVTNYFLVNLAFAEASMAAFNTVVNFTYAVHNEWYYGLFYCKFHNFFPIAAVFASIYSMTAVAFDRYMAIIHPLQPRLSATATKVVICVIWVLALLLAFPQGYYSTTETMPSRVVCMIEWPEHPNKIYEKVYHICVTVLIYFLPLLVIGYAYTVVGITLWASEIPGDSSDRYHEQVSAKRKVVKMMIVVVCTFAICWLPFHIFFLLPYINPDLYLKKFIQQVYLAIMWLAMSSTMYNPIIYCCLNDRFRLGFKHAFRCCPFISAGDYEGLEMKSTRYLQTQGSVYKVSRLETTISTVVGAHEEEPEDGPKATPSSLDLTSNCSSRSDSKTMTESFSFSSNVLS", "experiment": "Selectivity interaction (Panel of kinases, GPCRs, ion channels and transporters (enzymatic assay)) EUB0000266bCl TACR1"}, "[8]": {"molecular_target": "Mitogen-activated protein kinase kinase kinase kinase 5 (Homo sapiens) (UniProt Q9Y4K4)", "sequence (Q9Y4K4 whole entry, looked up)": "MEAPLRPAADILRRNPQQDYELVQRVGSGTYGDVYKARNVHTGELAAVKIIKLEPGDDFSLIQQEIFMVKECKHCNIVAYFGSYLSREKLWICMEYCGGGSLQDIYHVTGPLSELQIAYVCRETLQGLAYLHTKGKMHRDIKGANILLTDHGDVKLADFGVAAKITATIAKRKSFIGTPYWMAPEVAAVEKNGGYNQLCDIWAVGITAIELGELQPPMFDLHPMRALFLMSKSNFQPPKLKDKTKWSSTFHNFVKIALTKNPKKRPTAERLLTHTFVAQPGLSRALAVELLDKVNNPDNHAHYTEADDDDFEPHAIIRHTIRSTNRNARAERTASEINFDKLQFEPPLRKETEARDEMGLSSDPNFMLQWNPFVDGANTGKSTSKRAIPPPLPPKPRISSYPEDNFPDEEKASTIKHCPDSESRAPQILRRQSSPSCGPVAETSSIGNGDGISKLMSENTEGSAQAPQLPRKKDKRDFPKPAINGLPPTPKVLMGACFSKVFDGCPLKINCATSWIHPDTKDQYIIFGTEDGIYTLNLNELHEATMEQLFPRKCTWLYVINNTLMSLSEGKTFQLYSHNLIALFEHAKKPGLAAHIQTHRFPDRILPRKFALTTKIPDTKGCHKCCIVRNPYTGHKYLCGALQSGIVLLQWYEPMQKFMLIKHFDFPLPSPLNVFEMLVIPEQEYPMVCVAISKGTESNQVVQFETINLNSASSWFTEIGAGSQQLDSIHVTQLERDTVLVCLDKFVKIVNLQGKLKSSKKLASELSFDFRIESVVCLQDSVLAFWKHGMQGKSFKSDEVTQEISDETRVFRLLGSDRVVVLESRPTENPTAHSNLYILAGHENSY", "experiment": "Selectivity interaction (Kinase panel (Z-LYTE Assay)) EUB0001632a MAP4K5", "conditions": "at 10 µM"}, "[9]": {"molecular_target": "Phosphatidylinositol 4-phosphate 5-kinase type-1 gamma (Homo sapiens) (UniProt O60331)", "sequence (O60331 whole entry)": "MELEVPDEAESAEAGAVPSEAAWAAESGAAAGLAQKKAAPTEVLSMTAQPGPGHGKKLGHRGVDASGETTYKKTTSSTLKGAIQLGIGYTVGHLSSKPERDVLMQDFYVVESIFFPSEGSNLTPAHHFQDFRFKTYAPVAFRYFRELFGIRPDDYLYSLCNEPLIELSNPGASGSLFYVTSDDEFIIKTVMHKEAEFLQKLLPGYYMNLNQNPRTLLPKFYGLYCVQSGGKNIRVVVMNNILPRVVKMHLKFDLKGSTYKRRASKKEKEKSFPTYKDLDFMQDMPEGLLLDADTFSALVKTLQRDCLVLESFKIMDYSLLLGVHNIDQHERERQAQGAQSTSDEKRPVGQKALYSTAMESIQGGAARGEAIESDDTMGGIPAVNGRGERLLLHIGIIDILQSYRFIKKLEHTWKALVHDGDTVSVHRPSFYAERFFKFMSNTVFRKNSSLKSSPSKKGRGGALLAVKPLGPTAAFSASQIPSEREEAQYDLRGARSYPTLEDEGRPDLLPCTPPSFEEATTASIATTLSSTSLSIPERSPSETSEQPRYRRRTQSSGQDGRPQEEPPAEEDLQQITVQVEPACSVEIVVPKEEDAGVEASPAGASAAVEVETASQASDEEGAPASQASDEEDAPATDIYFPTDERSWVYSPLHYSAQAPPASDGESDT", "experiment": "Selectivity interaction (KinomeScan (DiscoverX)) EUB0000695a PIP5K1C", "conditions": "at 100 nM"}},
  "data": [
    {"smiles": "COCCN1CCC(c2cc(CN(C)C(=O)c3cccc(Oc4ccccc4)c3)ccn2)CC1", "values": [
      {"measurement": "IC50", "setting": "[1]", "result": "> 3", "unit": "nM"}
    ]},
    {"smiles": "Nc1cnc(N2CCc3cc(S(=O)(=O)Nc4c(F)cc(Cl)cc4F)cc(N4CCCC4=O)c32)nc1", "note": "[TP-020n]", "values": [
      {"measurement": "% of control", "setting": "[2]", "result": 100, "unit": "%"}
    ]},
    {"smiles": "CNC(=O)Nc1ccc(-c2nc(N3CC4CCC(C3)O4)c3cnn(C4CCC5(CC4)OCCO5)c3n2)cc1", "values": [
      {"measurement": "% of inhibition", "setting": "[3]", "result": 9, "unit": "%"}
    ]},
    {"smiles": "CC[C@@H]1[C@H](F)C(=O)N[C@@H]1COc1nccc2cc(C(N)=O)c(OC)cc12", "note": "[ZIMLOVISERTIB]", "values": [
      {"measurement": "% of inhibition", "setting": "[4]", "result": -7.6, "unit": "%"},
      {"measurement": "% of inhibition", "setting": "[5]", "result": 85.9, "unit": "%"},
      {"measurement": "% of inhibition", "setting": "[6]", "result": 12.8, "unit": "%"}
    ]},
    {"smiles": "CCn1c(-c2nc3cc(C(=O)N4CCCC(N)C4)ccc3n2C)cc2ccccc21", "note": "(centres undefined)", "values": [
      {"measurement": "pXC50", "setting": "[7]", "result": "< 4.4", "unit": "M"}
    ]},
    {"smiles": "Cn1cc(-n2cnc3c(NCc4nc5cc(Cl)c(Cl)cc5[nH]4)nc(N4CCOCC4)nc32)cn1", "values": [
      {"measurement": "% of control", "setting": "[8]", "result": 3.28, "unit": "%"}
    ]},
    {"smiles": "Cc1cc(F)c(C(=O)Nc2cccc(-c3nncn3C(C)C)n2)cc1-n1cnc(C2CC2)c1", "values": [
      {"measurement": "% of control", "setting": "[9]", "result": 100, "unit": "%"}
    ]}
  ]
}
